Consider four compounds from EPA's ToxRefDB 2.

The test system of series [1] is rat. The conditions noted are these: Subchronic oral toxicity in rodents, fischer, Feed, dose end: 13 week, group: systemic.
The subject of series [2] is mouse. The following applies: Carcinogenicity; other; Oral; Feed; dose end: 104 week; group: systemic; systemic / pathology microscopic / eye / cataract + systemic / pathology microscopic / kidney / vacuolization.
Series [3] concerns rat. The following applies: Combined chronic toxicity/carcinogenicity; fischer; Oral; [Not Specified]; dose end: 105 week; group: systemic; systemic / in life observation / body weight / body weight gain + systemic / pathology microscopic / kidney / cytoplasmic alteration + ….
The subject of series [4] is rat. The following applies: Neurotoxicity screening battery, wistar, Oral, Feed, dose end: 90 day, group: cannot be grouped.
For series [5], the system named is rabbit. The following applies: Prenatal developmental toxicity study, himalayan, Oral, Gavage/Intubation, dose end: 19 GD.
For series [6], the system named is rat. The conditions noted are these: Combined chronic toxicity/carcinogenicity, sprague dawley, Oral, Feed, dose end: 115 week.
Series [7] relates to dog. The following applies: Chronic toxicity, beagle, Oral, Feed, dose end: 53 week.
Series [8] has as its system rabbit. The following applies: Prenatal developmental toxicity study, himalayan, Oral, Gavage/Intubation, dose end: 18 GD.
For series [9], the system named is rat. The conditions noted are these: Subchronic oral toxicity in rodents, sprague dawley, Feed, dose end: 13 week.
Series [10] relates to rat. The following applies: Subchronic oral toxicity in rodents, sprague dawley, Feed, dose end: 13 week, group: systemic, systemic / in life observation / body weight / body weight + systemic / in life observation / body weight / body weight gain + systemic / ….
The test system of series [11] is dog. The conditions noted are these: Subchronic oral toxicity in nonrodent, beagle, Capsule, dose end: 90 day, group: systemic.
Series [12] deals with dog. The following applies: Chronic toxicity; beagle; Oral; Capsule; dose end: 12 month; group: systemic; systemic / pathology microscopic / urinary bladder / calculus + systemic / pathology microscopic / urinary bladder / crystals + systemic / ….
In series [13] the test system is rat. The conditions noted are these: Combined chronic toxicity/carcinogenicity; sprague dawley; Oral; Feed; dose end: 22 month; group: systemic; systemic / clinical chemistry / albumin / albumin + systemic / pathology microscopic / heart / mineralization + systemic / pathology ….
Series [14] deals with mouse. The conditions noted are these: Carcinogenicity; cd1; Oral; Feed; dose end: 18 month; group: systemic; systemic / pathology gross / urinary bladder / calculus + systemic / pathology microscopic / urinary bladder / hyperplasia + systemic / ….
Series [15] has as its system mouse. The following applies: Subchronic oral toxicity in rodents, b6c3f1, Feed, dose end: 13 week, group: systemic.
In series [16] the test system is rat. The following applies: Subchronic oral toxicity in rodents, fischer, Feed, dose end: 13 week, group: systemic, systemic / in life observation / body weight / body weight + systemic / in life observation / body weight / body weight gain + systemic / in….
[17] abbreviates: systemic / clinical chemistry / creatinine / creatinine + systemic / hematology / erythrocyte (rbc) count differential / erythrocyte (rbc….
Where [18] appears, read: group: developmental, developmental / developmental malformation / bone / cranioschisis + developmental / developmental malformation / bone / exencephaly + ….
Setting [19] is: group: maternal, systemic / in life observation / clinical signs / swelling.
Setting [20] is: group: cholinesterase, cholinesterase / cholinesterase / cholinesterase / plasma cholinesterase (che) + cholinesterase / cholinesterase / cholinesterase / brain (….
Setting [21] is: group: systemic, systemic / pathology microscopic / liver / eosinophilic focus.
Where [22] appears, read: group: cholinesterase, cholinesterase / cholinesterase / cholinesterase / cholinesterase (che).
[23] abbreviates: group: systemic, systemic / clinical chemistry / alkaline phosphatase (alp/alk) / alkaline phosphatase (alp/alk).
Setting [24] is: group: maternal, reproductive / reproductive performance / aborted / aborted + reproductive / reproductive performance / resorptions / resorptions + systemic….
Setting [25] is: group: cholinesterase, cholinesterase / cholinesterase / cholinesterase / erythrocyte cholinesterase (che).
Where [26] appears, read: group: systemic, systemic / organ weight / liver / relative to body weight + systemic / pathology microscopic / liver / necrosis.
[27] abbreviates: systemic / pathology microscopic / urinary bladder / calculus + systemic / pathology microscopic / urinary bladder / hemorrhage + systemic….
Where [28] appears, read: systemic / organ weight / liver / relative to body weight + systemic / pathology microscopic / liver / pigmentation.

Consider `CCOc1nc(F)cc2nc(S(=O)(=O)Nc3c(Cl)cccc3Cl)nn12` [Diclosulam], for which, in series [1] (setting [17]), the LEL stood at 50 mg/kg/day, the NEL is under 50 mg/kg/day and the NOAEL was 50 mg/kg/day. In series [1] (systemic / organ weight / liver / relative to body weight + systemic / pathology microscopic / liver / hypertrophy + systemic / pathology …), the LOAEL stood at 100 mg/kg/day. For the same compound, in [2], the LEL came to 51.3 mg/kg/day, the LOAEL turned out to be 51.3 mg/kg/day, the NEL is under 51.3 mg/kg/day and the NOAEL was under 51.3 mg/kg/day. Moreover, in series [3], the LEL amounted to 102 mg/kg/day, the LOAEL was determined as 102 mg/kg/day, the NEL was 5.1 mg/kg/day and the NOAEL stood at 5.1 mg/kg/day.
On to `CC(Cc1ccc(C(C)(C)C)cc1)CN1C[C@@H](C)O[C@@H](C)C1` (stereo partly drawn) [(2R,6S)-Fenpropimorph], for which the LEL in series [4] (cholinesterase / cholinesterase / cholinesterase / cholinesterase (che)) amounted to 0.8 mg/kg/day; in series [5] (setting [18]), 30 mg/kg/day; in series [5] (setting [19]), 30 mg/kg/day; in [6] (setting [20]), 0.2 mg/kg/day; in [6] (setting [21]), 0.2 mg/kg/day; in series [7] (setting [22]), 12.3 mg/kg/day. Moreover, the LEL in [7] (setting [23]) is 12.3 mg/kg/day; in series [8] (group: developmental, developmental / developmental malformation / general / [other] + developmental / developmental malformation / bone / misshapen) it was 36 mg/kg/day; in series [8] (setting [24]), 36 mg/kg/day; in [9] (setting [25]) it was 0.465 mg/kg/day; in [9] (setting [26]), 0.768 mg/kg/day. The NEL in [4] (cholinesterase / cholinesterase / cholinesterase / cholinesterase (che) + systemic / clinical chemistry / alanine aminotransferase (alt/sgpt…) was 0.1 mg/kg/day; in [5] (setting [18]), 15 mg/kg/day; in series [5] (setting [19]), 15 mg/kg/day; in [6] (setting [20]), under 0.2 mg/kg/day; in series [6] (setting [21]), under 0.2 mg/kg/day; in [7] (setting [22]), 3.2 mg/kg/day. In addition, the NEL in series [7] (setting [23]) was 3.2 mg/kg/day; in series [9] (setting [25]) it was under 0.465 mg/kg/day; in series [9] (setting [26]), 0.382 mg/kg/day. Besides, the LOAEL in [4] (systemic / organ weight / liver / absolute + systemic / organ weight / liver / relative to body weight) is 7.1 mg/kg/day; in series [5] (setting [18]), 30 mg/kg/day; in [5] (setting [19]), 30 mg/kg/day; in series [6] (setting [20]) it was over 8.8 mg/kg/day; in series [6] (group: systemic, systemic / pathology microscopic / liver / hypertrophy + systemic / pathology microscopic / liver / eosinophilic focus + systemic / …), 8.8 mg/kg/day; in [7] (setting [22]), 12.3 mg/kg/day. Also, the LOAEL in series [7] (setting [23]) was 12.3 mg/kg/day; in series [8] (group: developmental, developmental / developmental malformation / general / [other]) it was 36 mg/kg/day; in series [8] (setting [24]), 36 mg/kg/day; in series [9] (setting [22]) it was over 1.54 mg/kg/day; in series [9] (setting [26]) it was 1.54 mg/kg/day. For the same compound, the NOAEL is 0.7 mg/kg/day in [4] (systemic / organ weight / liver / absolute + systemic / organ weight / liver / relative to body weight + cholinesterase / cholinesterase / …); 15 mg/kg/day in series [5] (setting [18]); 15 mg/kg/day in series [5] (setting [19]); at least 8.8 mg/kg/day in series [6] (setting [20]); 1.7 mg/kg/day in series [6] (group: systemic, systemic / pathology microscopic / liver / hypertrophy + systemic / organ weight / liver / relative to body weight); 3.2 mg/kg/day in series [7] (setting [22]). Besides, the NOAEL in series [7] (setting [23]) is 3.2 mg/kg/day; in series [9] (setting [22]), at least 1.54 mg/kg/day; in [9] (setting [26]) it was 0.768 mg/kg/day.
Regarding `CCS(=O)(=O)c1nc2ccccn2c1S(=O)(=O)NC(=O)Nc1nc(OC)cc(OC)n1` [Sulfosulfuron], the LEL was 1280 mg/kg/day in series [10]; 100 mg/kg/day in series [11] (systemic / pathology microscopic / urinary bladder / calculus); 500 mg/kg/day in series [12]; 244 mg/kg/day in [13]; 394 mg/kg/day in [14]. For the same compound, the LOAEL in series [10] is 1280 mg/kg/day; in [11] (systemic / urinalysis / sediment microscopic / crystalluria), 300 mg/kg/day; in series [12] it was 500 mg/kg/day; in [13], 244 mg/kg/day; in series [14] it was 394 mg/kg/day. Further, the NEL in [10] is 370 mg/kg/day; in [11] (setting [27]), 30 mg/kg/day; in [12] it was 100 mg/kg/day; in series [13], 24.4 mg/kg/day; in [14], 93.4 mg/kg/day. The NOAEL was 370 mg/kg/day in series [10]; 100 mg/kg/day in series [11] (setting [27]); 100 mg/kg/day in series [12]; 24.4 mg/kg/day in series [13]; 93.4 mg/kg/day in series [14].
As to `Nc1c(Br)cc(Br)c2c1C(=O)c1ccccc1C2=O` [1-Amino-2,4-dibromoanthraquinone], in series [15] (setting [28]), the LEL came out at 500 mg/kg/day and the NEL was under 500 mg/kg/day. This compound also registered an LOAEL in [15] (systemic / pathology microscopic / liver / hypertrophy) of 1850 mg/kg/day. Besides, in [15] (systemic / pathology microscopic / liver / hypertrophy + systemic / in life observation / body weight / body weight gain + systemic / in …), the NOAEL was determined as 1080 mg/kg/day. Besides, in series [16], the LEL worked out at 150 mg/kg/day, the LOAEL was determined as 150 mg/kg/day, the NEL is under 150 mg/kg/day and the NOAEL was under 150 mg/kg/day.
